Experimental data published in patent US11572399B2, “Long-acting GIP peptide analogues” (University of Copenhagen, priority 2017, dated 2023).
Peptide text beside a SMILES is read from it. * marks the point of attachment. C16 diacid = O=C(O)CCCCCCCCCCCCCCC(=O)*; Palmitoyl = CCCCCCCCCCCCCCCC(=O)*

Columns and labels:
[1] = biological target: T1, human GIP receptor (Homo sapiens, UniProt P48546); experiment: cAMP accumulation assay, agonism (ligand alone); format: cell-based; settings: COS-7 cells, Table 1; for Emax: COS-7, intrinsic cAMP activity; for EC50: read-out: cAMP agonism nM (EC50)
T1 construct: host or cells: COS-7, transient transfection (calcium phosphate), cDNA in pCMV-Script
T1 sequence (P48546 22-466): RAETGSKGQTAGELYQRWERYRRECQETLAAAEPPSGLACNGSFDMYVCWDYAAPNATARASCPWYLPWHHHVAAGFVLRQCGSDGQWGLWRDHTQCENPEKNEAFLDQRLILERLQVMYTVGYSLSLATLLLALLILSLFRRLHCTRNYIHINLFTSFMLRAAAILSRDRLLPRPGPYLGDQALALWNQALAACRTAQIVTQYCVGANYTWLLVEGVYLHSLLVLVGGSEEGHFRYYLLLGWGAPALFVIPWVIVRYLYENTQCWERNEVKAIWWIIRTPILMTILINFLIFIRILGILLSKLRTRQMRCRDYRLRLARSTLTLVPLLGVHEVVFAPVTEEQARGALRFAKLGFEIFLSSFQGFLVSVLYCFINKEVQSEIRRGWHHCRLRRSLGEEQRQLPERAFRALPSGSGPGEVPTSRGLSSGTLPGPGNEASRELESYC

[2] = biological target: T1, human GIP receptor; experiment: cAMP accumulation assay, antagonism of a GIP-mediated cAMP response (50-80% of max); format: cell-based; settings: for cAMP - antagonisme fold (paired): fold vs GIP(3-30)NH2
Experimental: The day after, the cells were washed twice with Hepes buffered saline (HBS) buffer and incubated with HBS and 1 mM 3-isobutyl-1-methylxanthine (IBMX) for 30 min at 37° C. […] The HitHunter™ cAMP XS assay (DiscoveRx) was carried out according to the manufacturer's instructions.

[3] = biological target: T1, human GIP receptor; experiment: 125I-human GIP competition binding assay, in the presence and absence of 2% HSA; settings: for Binding fold (paired): fold decrease in affinity compared to GIP(3-30)NH2; for Fold change HSA (2%)/Casein (0.1%): IC50 (plus HSA)/IC50 (minus HSA); for Fold change in affinity, IC50 (plus HSA)/IC50 (minus HSA): presence vs absence of 2% HSA, proxy for albumin binding;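 on all read-outs here: nonspecific binding taken as radioligand bound to untransfected cells, IC50 obtained from nonlinear regression fits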
[4] = Table 3b, initial data, read-out: Binding IC50
[5] = heterologous competition binding, transiently transfected COS-7 cells expressing the human GIP receptor, read-out: Binding
[6] = given as log IC50 (negative sign), transiently transfected COS-7 cells, Table 1, read-out: cAMP antagonism log (converted)
[7] = transiently transfected COS-7 cells, Table 1 and text, read-out: cAMP antagonism nM (IC50, antagonistic potency)
[8] = binding in presence of 2% HSA, read-out: logIC50 2% HSA (converted)
[9] = binding in 0.1% casein (absence of HSA), log value, read-out: logIC50 0.1% casein (converted)

| Compound | Emax [1] [%] | cAMP - antagonisme fold (paired) ([2]; Table 3b) [fold] | IC50 [3, 4] [nM] | Binding fold (paired) ([3]; Table 3b) [fold] | IC50 [3, 5] [nM] | IC50 [2, 7] [nM] | Fold change HSA (2%)/Casein (0.1%) [3] | other results |
| --- | --- | --- | --- | --- | --- | --- | --- | --- |
| CCCCCCCCCCCCCCCC(=O)NCCCC[C@H](NC(=O)[C@H](CCC(=O)O)NC(=O)[C@H](CCSC)NC(=O)[C@H](C)NC(=O)[C@@H](NC(=O)[C@H](CO)NC(=O)[C@H](Cc1ccc(O)cc1)NC(=O)[C@H](CC(=O)O)NC(=O)[C@H](CO)NC(=O)[C@@H](NC(=O)[C@H](Cc1ccccc1)NC(=O)[C@H](Cc1c[nH]c2ccccc12)NC(=O)CNC(=O)[C@@H](N)CCC(=O)O)[C@@H](C)CC)[C@@H](C)CC)C(=O)N[C@H](C(=O)N[C@@H](C)C(=O)N[C@@H](CCC(N)=O)C(=O)N[C@@H](CCC(N)=O)C(=O)N[C@@H](CC(=O)O)C(=O)N[C@@H](Cc1ccccc1)C(=O)N[C@H](C(=O)N[C@@H](CC(N)=O)C(=O)N[C@@H](Cc1c[nH]c2ccccc12)C(=O)N[C@@H](CC(C)C)C(=O)N[C@@H](CC(C)C)C(=O)N[C@@H](C)C(=O)N[C@@H](CCC(N)=O)C(=O)N[C@@H](CCCCN)C(N)=O)C(C)C)[C@@H](C)CC [AT107, [hGIP(3-30)NH2[T5W; D15E; H18A]-C16/16]] (H-EGWFISDYSIAMEK(Palmitoyl)IAQQDFVNWLLAQK-NH2; N-terminus assumed) | 23 | 3.1 | 5220 | 186 | 5220 |  |  | EC50 [1]: 1300 nM |
| CCCCCCCCCCCCCC(=O)NCCCC[C@H](NC(=O)[C@H](CC(=O)O)NC(=O)[C@H](CCSC)NC(=O)[C@H](C)NC(=O)[C@@H](NC(=O)[C@H](CO)NC(=O)[C@H](Cc1ccc(O)cc1)NC(=O)[C@H](CC(=O)O)NC(=O)[C@H](CO)NC(=O)[C@@H](NC(=O)[C@H](Cc1ccccc1)NC(=O)[C@@H](NC(=O)CNC(=O)[C@@H](N)CCC(=O)O)[C@@H](C)O)[C@@H](C)CC)[C@@H](C)CC)C(=O)N[C@H](C(=O)N[C@@H](Cc1c[nH]cn1)C(=O)N[C@@H](CCC(N)=O)C(=O)N[C@@H](CCC(N)=O)C(=O)N[C@@H](CC(=O)O)C(=O)N[C@@H](Cc1ccccc1)C(=O)N[C@H](C(=O)N[C@@H](CC(N)=O)C(=O)N[C@@H](Cc1c[nH]c2ccccc12)C(=O)N[C@@H](CC(C)C)C(=O)N[C@@H](CC(C)C)C(=O)N[C@@H](C)C(=O)N[C@@H](CCC(N)=O)C(=O)N[C@@H](CCCCN)C(N)=O)C(C)C)[C@@H](C)CC [AT111, [hGIP(3-30)NH2—C14/16]] | 0 | 3.3 | 261 | 31 | 261 | 22 | 5.1 | IC50 [2, 6]: 25.1 nM; IC50 ([3]; 0.1% casein, no HSA, Table 3b, read-out: Binding logIC50 0.1% casein (converted)): 407 nM; IC50 ([3]; 2% HSA, Table 3b, read-out: Binding logIC50 2% HSA (converted)): 2090 nM; IC50 [3, 8]: 2090 nM; Fold change in affinity, IC50 (plus HSA)/IC50 (minus HSA) [3]: 5.1 fold |
| CCCCCCCCCCCCCCCCCC(=O)NCCCC[C@H](NC(=O)[C@H](CC(=O)O)NC(=O)[C@H](CCSC)NC(=O)[C@H](C)NC(=O)[C@@H](NC(=O)[C@H](CO)NC(=O)[C@H](Cc1ccc(O)cc1)NC(=O)[C@H](CC(=O)O)NC(=O)[C@H](CO)NC(=O)[C@@H](NC(=O)[C@H](Cc1ccccc1)NC(=O)[C@@H](NC(=O)CNC(=O)[C@@H](N)CCC(=O)O)[C@@H](C)O)[C@@H](C)CC)[C@@H](C)CC)C(=O)N[C@H](C(=O)N[C@@H](Cc1c[nH]cn1)C(=O)N[C@@H](CCC(N)=O)C(=O)N[C@@H](CCC(N)=O)C(=O)N[C@@H](CC(=O)O)C(=O)N[C@@H](Cc1ccccc1)C(=O)N[C@H](C(=O)N[C@@H](CC(N)=O)C(=O)N[C@@H](Cc1c[nH]c2ccccc12)C(=O)N[C@@H](CC(C)C)C(=O)N[C@@H](CC(C)C)C(=O)N[C@@H](C)C(=O)N[C@@H](CCC(N)=O)C(=O)N[C@@H](CCCCN)C(N)=O)C(C)C)[C@@H](C)CC [AT114, [hGIP(3-30)NH2—C18/16]] | 39 | 2.3 | 102 | 6.7 |  |  | 11.2 | IC50 ([2]; Table 3b, initial data, read-out: cAMP - antagonisme IC50): 29.2 nM; IC50 [2, 6]: 63.1 nM; IC50 [3, 9]: 501 nM; Fold change in affinity, IC50 (plus HSA)/IC50 (minus HSA) [3]: 7.7 fold |
| CCCCCCCCCCCC(=O)N[C@H](C(=O)N[C@@H](Cc1ccccc1)C(=O)N[C@H](C(=O)N[C@@H](CO)C(=O)N[C@@H](CC(=O)O)C(=O)N[C@@H](Cc1ccc(O)cc1)C(=O)N[C@@H](CO)C(=O)N[C@H](C(=O)N[C@@H](C)C(=O)N[C@@H](CCSC)C(=O)N[C@@H](CC(=O)O)C(=O)N[C@@H](CCCCN)C(=O)N[C@H](C(=O)N[C@@H](Cc1c[nH]cn1)C(=O)N[C@@H](CCC(N)=O)C(=O)N[C@@H](CCC(N)=O)C(=O)N[C@@H](CC(=O)O)C(=O)N[C@@H](Cc1ccccc1)C(=O)N[C@H](C(=O)N[C@@H](CC(N)=O)C(=O)N[C@@H](Cc1c[nH]c2ccccc12)C(=O)N[C@@H](CC(C)C)C(=O)N[C@@H](CC(C)C)C(=O)N[C@@H](C)C(=O)N[C@@H](CCC(N)=O)C(=O)N[C@@H](CCCCN)C(N)=O)C(C)C)[C@@H](C)CC)[C@@H](C)CC)[C@@H](C)CC)[C@@H](C)O [AT118, [hGIP(5-30)NH2—C12/5]] | 0 |  |  |  | 102 | 29 | 7.7 | Ability to antagonize the GIP-mediated cAMP response (in words) [2]: high potent antagonists; Affinity compared to GIP(3-30)NH2 (in words) [3]: affinities in the same range as GIP(3-30)NH2; IC50 [3, 9]: 126 nM; IC50 [3, 8]: 881 nM |
| CC[C@H](C)[C@H](NC(=O)[C@H](CO)NC(=O)[C@H](Cc1ccc(O)cc1)NC(=O)[C@H](CC(=O)O)NC(=O)[C@H](CO)NC(=O)[C@@H](NC(=O)[C@H](Cc1ccccc1)NC(=O)[C@@H](NC(=O)CNC(=O)[C@@H](N)CCC(=O)O)[C@@H](C)O)[C@@H](C)CC)C(=O)N[C@@H](C)C(=O)N[C@@H](CCSC)C(=O)N[C@@H](CC(=O)O)C(=O)N[C@@H](CCCCN)C(=O)N[C@H](C(=O)N[C@@H](Cc1c[nH]cn1)C(=O)N[C@@H](CCC(N)=O)C(=O)N[C@@H](CCC(N)=O)C(=O)N[C@@H](CCCCNC(=O)CCCCCCCCCCCCCCC(=O)O)C(=O)N[C@@H](Cc1ccccc1)C(=O)N[C@H](C(=O)N[C@@H](CC(N)=O)C(=O)N[C@@H](Cc1c[nH]c2ccccc12)C(=O)N[C@@H](CC(C)C)C(=O)N[C@@H](CC(C)C)C(=O)N[C@@H](C)C(=O)N[C@@H](CCC(N)=O)C(=O)N[C@@H](CCCCN)C(N)=O)C(C)C)[C@@H](C)CC [AT310, [hGIP(3-30)NH2[D21K]-C16diacid/21]] (H-EGTFISDYSIAMDKIHQQK(C16 diacid)FVNWLLAQK-NH2; N-terminus assumed) | 6.2 |  |  |  |  | 49 |  |  |
| CC[C@H](C)[C@H](NC(=O)[C@H](CO)NC(=O)[C@H](Cc1ccc(O)cc1)NC(=O)[C@H](CC(=O)O)NC(=O)[C@H](CO)NC(=O)[C@@H](NC(=O)[C@H](Cc1ccccc1)NC(=O)[C@@H](NC(=O)CNC(=O)[C@@H](N)CCC(=O)O)[C@@H](C)O)[C@@H](C)CC)C(=O)N[C@@H](C)C(=O)N[C@@H](CCSC)C(=O)N[C@@H](CC(=O)O)C(=O)N[C@@H](CCCCN)C(=O)N[C@H](C(=O)N[C@@H](Cc1c[nH]cn1)C(=O)N[C@@H](CCC(N)=O)C(=O)N[C@@H](CCC(N)=O)C(=O)N[C@@H](CC(=O)O)C(=O)N[C@@H](Cc1ccccc1)C(=O)N[C@H](C(=O)N[C@@H](CC(N)=O)C(=O)N[C@@H](Cc1c[nH]c2ccccc12)C(=O)N[C@@H](CC(C)C)C(=O)N[C@@H](CC(C)C)C(=O)N[C@@H](C)C(=O)N[C@@H](CCCCNC(=O)CCCCCCCCCCCCCCC(=O)O)C(=O)N[C@@H](CCCCN)C(N)=O)C(C)C)[C@@H](C)CC [AT318, [hGIP(3-30)NH2[Q29K]-C16diacid/29]] (H-EGTFISDYSIAMDKIHQQDFVNWLLAK(C16 diacid)K-NH2; N-terminus assumed) | 10.8 |  |  |  |  | 224 |  | EC50 [1]: 131 nM |
| CC[C@H](C)[C@H](NC(=O)[C@H](CO)NC(=O)[C@H](Cc1ccc(O)cc1)NC(=O)[C@H](CC(=O)O)NC(=O)[C@H](CO)NC(=O)[C@@H](NC(=O)[C@H](Cc1ccccc1)NC(=O)[C@@H](NC(=O)CNC(=O)[C@@H](N)CCC(=O)O)[C@@H](C)O)[C@@H](C)CC)C(=O)N[C@@H](C)C(=O)N[C@@H](CCSC)C(=O)N[C@@H](CC(=O)O)C(=O)N[C@@H](CCCCNC(=O)CCCCCCCCCCCCCCC(=O)O)C(=O)N[C@H](C(=O)N[C@@H](Cc1c[nH]cn1)C(=O)N[C@@H](CCC(N)=O)C(=O)N[C@@H](CCC(N)=O)C(=O)N[C@@H](CC(=O)O)C(=O)N[C@@H](Cc1ccccc1)C(=O)N[C@H](C(=O)N[C@@H](CC(N)=O)C(=O)N[C@@H](Cc1c[nH]c2ccccc12)C(=O)N[C@@H](CC(C)C)C(=O)N[C@@H](CC(C)C)C(=O)N[C@@H](C)C(=O)N[C@@H](CCC(N)=O)C(=O)N[C@@H](CCCCN)C(N)=O)C(C)C)[C@@H](C)CC [AT370, [hGIP(3-30)NH2—C16diacid/16]] |  |  |  |  |  | 25 |  | cAMP agonism Emax ([1]; intrinsic cAMP activity): no ag. |
